{"source": "ChEMBL document CHEMBL3864136", "about": "“A monocyclic neodysiherbaine analog: Synthesis and evaluation” (Bioorg Med Chem Lett, 2016)", "key": {"[1]": {"biological_target": "Glutamate receptor ionotropic, kainate 2 (Homo sapiens, UniProt Q13002)", "sequence (Q13002 whole entry)": "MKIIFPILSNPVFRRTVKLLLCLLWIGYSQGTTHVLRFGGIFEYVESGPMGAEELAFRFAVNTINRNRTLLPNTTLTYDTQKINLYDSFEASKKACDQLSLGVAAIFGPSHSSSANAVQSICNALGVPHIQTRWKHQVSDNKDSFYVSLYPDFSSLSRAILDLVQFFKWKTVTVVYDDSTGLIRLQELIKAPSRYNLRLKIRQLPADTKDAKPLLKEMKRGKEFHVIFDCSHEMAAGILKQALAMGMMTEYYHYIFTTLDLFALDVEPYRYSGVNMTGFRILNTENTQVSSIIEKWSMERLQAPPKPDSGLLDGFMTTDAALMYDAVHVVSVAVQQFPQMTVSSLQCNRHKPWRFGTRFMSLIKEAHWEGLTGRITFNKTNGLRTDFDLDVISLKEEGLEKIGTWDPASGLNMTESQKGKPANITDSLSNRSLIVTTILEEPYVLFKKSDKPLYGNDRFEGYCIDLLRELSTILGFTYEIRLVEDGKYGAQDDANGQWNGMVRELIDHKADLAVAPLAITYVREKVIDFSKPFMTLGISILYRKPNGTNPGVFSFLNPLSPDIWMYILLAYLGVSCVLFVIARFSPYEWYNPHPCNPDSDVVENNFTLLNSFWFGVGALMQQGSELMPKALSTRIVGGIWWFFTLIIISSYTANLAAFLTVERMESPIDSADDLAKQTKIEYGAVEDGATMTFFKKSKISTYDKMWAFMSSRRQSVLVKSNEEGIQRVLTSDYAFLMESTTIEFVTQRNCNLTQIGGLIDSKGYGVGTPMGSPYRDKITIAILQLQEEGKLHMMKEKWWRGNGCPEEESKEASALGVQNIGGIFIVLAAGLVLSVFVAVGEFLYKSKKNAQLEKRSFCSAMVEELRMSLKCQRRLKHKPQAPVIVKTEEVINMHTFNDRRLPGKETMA", "experiment": "Displacement of [3H]kianic acid from recombinant GluK2 kainate receptor (unknown origin) expressed in HEK293 cell membranes measured after 1 hr"}, "[2]": {"biological_target": "Glutamate receptor ionotropic, kainate 1 (Homo sapiens, UniProt P39086)", "sequence (P39086 whole entry)": "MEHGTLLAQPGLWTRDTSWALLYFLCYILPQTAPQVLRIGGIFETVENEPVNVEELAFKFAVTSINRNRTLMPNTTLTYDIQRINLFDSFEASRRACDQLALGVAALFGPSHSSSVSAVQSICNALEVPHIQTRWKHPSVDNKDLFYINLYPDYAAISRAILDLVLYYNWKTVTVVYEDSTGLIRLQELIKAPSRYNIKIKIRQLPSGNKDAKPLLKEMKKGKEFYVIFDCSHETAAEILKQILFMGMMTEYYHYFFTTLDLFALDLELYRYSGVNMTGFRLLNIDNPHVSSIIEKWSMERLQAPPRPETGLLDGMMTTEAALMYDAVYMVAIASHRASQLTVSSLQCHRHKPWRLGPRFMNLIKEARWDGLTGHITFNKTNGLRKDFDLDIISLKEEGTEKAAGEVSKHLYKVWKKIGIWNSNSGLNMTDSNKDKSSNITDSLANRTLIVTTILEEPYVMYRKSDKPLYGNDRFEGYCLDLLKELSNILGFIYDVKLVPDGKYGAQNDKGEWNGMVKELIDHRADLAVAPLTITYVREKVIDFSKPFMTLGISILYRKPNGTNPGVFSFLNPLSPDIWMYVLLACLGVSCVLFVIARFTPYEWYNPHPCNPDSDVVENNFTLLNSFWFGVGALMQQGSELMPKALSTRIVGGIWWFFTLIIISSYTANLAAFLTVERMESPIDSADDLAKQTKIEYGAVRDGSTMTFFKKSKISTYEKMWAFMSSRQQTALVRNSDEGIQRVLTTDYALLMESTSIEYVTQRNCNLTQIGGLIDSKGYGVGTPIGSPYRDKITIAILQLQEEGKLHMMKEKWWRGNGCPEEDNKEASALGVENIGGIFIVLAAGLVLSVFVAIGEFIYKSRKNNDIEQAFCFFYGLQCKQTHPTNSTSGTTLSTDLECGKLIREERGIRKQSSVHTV", "experiment": "Displacement of [3H]kianic acid from recombinant GluK1 kainate receptor (unknown origin) expressed in HEK293 cell membranes measured after 1 hr"}}, "data": [{"smiles": "CN[C@H]1[C@H]2O[C@@](C[C@H](N)C(=O)O)(C(=O)O)C[C@H]2OC[C@H]1O", "note": "[DYSIHERBAINE]", "values": [{"measurement": "Ki", "setting": "[1]", "result": 1.2, "unit": "nM"}, {"measurement": "Ki", "setting": "[2]", "result": 0.74, "unit": "nM"}]}]}
